# Data as given in patent US20230182351A1, “ANTI-MICROBIAL ADDITIVE AND PROPERTIES TO FOAM TO PREVENT MOLD” (LEAR CORPORATION, priority 2021, published 2023).
# System: bacterial and fungal growth
# Assay: Antimicrobial tests summarized in Table 1 (JIS Z 2801, ASTM G-21)
# Format: cell-based
# Conditions: in polyurethane foam, amount systematically varied
# Method: Two polyurethane sample families were prepared. The amount of the liquid antimicrobial agent N-butyl-1,2-benzisothiazolin-3-one was systematically varied. It is pointed out that he JIS Z 2801 method test is an industry standard for testing the ability of a surface to inhibit the growth of microorganisms. ASTM G-21 is a test for fungal resistance test
smiles,measurement,value
"CCCCn1sc2ccccc2c1=O [N-butyl-1,2-benzisothiazolin-3-one]",inhibition of bacterial and fungal growth,significant inhibition
